{
  "source": "patent US5643954A",
  "about": "“Method of preventing and alleviating stress in a healthy mammal in need thereof” (priority 1993, dated 1997)",
  "key": {"[1]": {"system": "EEG", "conditions": "for Biopotential slow form amplitude / Expression of biopotential slow forms / Expression of pathologically acute waves and peaked oscillation / Expression of α-rhythm / Paroxysmal bursts / α-frequency / α-oscillation amplitude / β-rhythm amplitude / β-rhythm expression / β-rhythm, low-frequency expression: M"}, "[2]": {"system": "chronic electric painful influence", "conditions": "for daily 15% ethanol consumption: M ± m", "protocol": "In the test and control groups of animals, a determination was given during 7 days to an individual daily consumption of 15% ethanol in the conditions of free choice between said 15% ethanol and water. Thereafter the young rats were subjected to quintuple electric painful influence, daily for 2 weeks, on the paws for 5 minutes, duration 1 sec.; the grown-up animals--tenfold influence for 10 minutes, duration 1 sec. […] The control group received a corresponding volume of water."}, "[3]": {"system": "chronic emotional stress", "conditions": "1 mg/kg tongue root; for 15% ethanol daily consumed: M ± m", "source_text": "It is commonly known that manipulations with animals (cell sampling, administration of substances, water included) are a unique stress factor and cause a prolonged state of excitement, disturbance, aggressiveness."}, "[4]": {"protocol": "The examination of attention was performed by using Schulte test which provides for a square chart produced before a patient (tested) that is divided into 49 squares containing confusedly arranged red and black numbers (24 and 25, respectively). The numbers are sought in the chart in strict order, say, red ones in increasing order and black ones in decreasing order, and along with this, the time is fixed for execution of the entire assignment, the time of search of each and every figure and the number of mistakes. The test makes it possible to assess attention and reveal the persons having enhanced emotional responses.\nTo study the state of short-lived memory, use was made of a test based on reproduction of 10 two-digit numbers shown on the screen for 20 sec. […] Sensomotor reactions were evaluated with the aid of a visual-motor reaction (differentiation of optical signals from 20 applications).", "remark": "listed apart in the source"}, "[5]": {"conditions": "after the exams, after taking, M ± m"}, "[6]": {"conditions": "lab conditions, after taking, after testing, M ± m"}, "[7]": {"conditions": "after taking the preparation, M ± m"}},
  "note": "Where two headings read alike, the source gives them in different places.",
  "data": [
    {"substance": "aminoacetic acid [claimed preparation]", "values": [
      {"measurement": "EEG variation b)", "setting": "[1]; 1,5 hrs after a dose", "value": 2.79, "unit": "arbitrary units"},
      {"measurement": "Biopotential slow form amplitude", "setting": "[1]; 1,5 hrs after a dose", "value": 41.40, "unit": "mV"},
      {"measurement": "Expression of biopotential slow forms", "setting": "[1]; 1,5 hrs after a dose", "value": 2.85, "unit": "arbitrary units"},
      {"measurement": "Expression of pathologically acute waves and peaked oscillation", "setting": "[1]; 1,5 hrs after a dose", "value": 1.71, "unit": "arbitrary units"},
      {"measurement": "Expression of α-rhythm", "setting": "[1]; 1,5 hrs after a dose", "value": 4.89, "unit": "arbitrary units"},
      {"measurement": "Paroxysmal bursts", "setting": "[1]; 1,5 hrs after a dose", "value": 2.21, "unit": "arbitrary units"},
      {"measurement": "α-frequency", "setting": "[1]; 1,5 hrs after a dose", "value": 10.60, "unit": "Hertz"},
      {"measurement": "α-oscillation amplitude", "setting": "[1]; 1,5 hrs after a dose", "value": 105.70, "unit": "mV"},
      {"measurement": "β-rhythm amplitude", "setting": "[1]; 1,5 hrs after a dose", "value": 13.60, "unit": "mV"},
      {"measurement": "β-rhythm expression", "setting": "[1]; 1,5 hrs after a dose", "value": 2.14, "unit": "arbitrary units"},
      {"measurement": "β-rhythm, low-frequency expression", "setting": "[1]; 1,5 hrs after a dose", "value": 1.21, "unit": "arbitrary units"},
      {"measurement": "EEG variation a)", "setting": "[1]; after two-week course", "value": 3.00, "unit": "arbitrary units"},
      {"measurement": "EEG variation b)", "setting": "[1]; after two-week course", "value": 2.42, "unit": "arbitrary units"},
      {"measurement": "Biopotential slow form amplitude", "setting": "[1]; after two-week course", "value": 44.20, "unit": "mV"},
      {"measurement": "Expression of biopotential slow forms", "setting": "[1]; after two-week course", "value": 3.60, "unit": "arbitrary units"},
      {"measurement": "Expression of pathologically acute waves and peaked oscillation", "setting": "[1]; after two-week course", "value": 1.93, "unit": "arbitrary units"},
      {"measurement": "Expression of α-rhythm", "setting": "[1]; after two-week course", "value": 4.54, "unit": "arbitrary units"},
      {"measurement": "Paroxysmal bursts", "setting": "[1]; after two-week course", "value": 3.00, "unit": "arbitrary units"},
      {"measurement": "α-frequency", "setting": "[1]; after two-week course", "value": 10.40, "unit": "Hertz"},
      {"measurement": "α-oscillation amplitude", "setting": "[1]; after two-week course", "value": 95.00, "unit": "mV"},
      {"measurement": "β-rhythm amplitude", "setting": "[1]; after two-week course", "value": 16.40, "unit": "mV"},
      {"measurement": "β-rhythm expression", "setting": "[1]; after two-week course", "value": 2.07, "unit": "arbitrary units"},
      {"measurement": "β-rhythm, low-frequency expression", "setting": "[1]; after two-week course", "value": 1.29, "unit": "arbitrary units"},
      {"measurement": "EEG-based activity", "setting": "[1]; all examined EEG indicators, in words", "value": "has nootropic activity"},
      {"measurement": "Arterial pressure, diastolic", "setting": "[5]", "value": "65.7 ± 1.5", "unit": "mm Hg"},
      {"measurement": "Arterial pressure, systolic", "setting": "[5]", "value": "112.8 ± 2.8", "unit": "mm Hg"},
      {"measurement": "Pulse frequency", "setting": "[5]", "value": "72.8 ± 2.3", "unit": "spec./min."},
      {"measurement": "change in pulse rate and arterial pressure", "setting": "heightened nerve-psychic agitation, in words", "value": "eliminates a change in a pulse rate and arterial pressure"},
      {"measurement": "Arterial pressure, diastolic", "setting": "in vivo", "value": "69.3 ± 1.3", "unit": "mm Hg"},
      {"measurement": "Arterial pressure, systolic", "setting": "in vivo", "value": "110.2 ± 1.7", "unit": "mm Hg"},
      {"measurement": "Pulse frequency", "setting": "in vivo", "value": "76.8 ± 1.4", "unit": "spec./min."},
      {"measurement": "Arterial pressure, diastolic", "setting": "[6]", "value": "69.2 ± 1.1", "unit": "mm Hg"},
      {"measurement": "Arterial pressure, systolic", "setting": "[6]", "value": "107.7 ± 1.5", "unit": "mm Hg"},
      {"measurement": "Pulse frequency", "setting": "[6]", "value": "78.1 ± 1.4", "unit": "spec./min."},
      {"measurement": "daily 15% ethanol consumption", "setting": "[2]; adult animals, 2nd week, 1 to 2 mg/kg tongue root", "value": "3.4 ± 0.13", "unit": "mL"},
      {"measurement": "daily 15% ethanol consumption", "setting": "[2]; adult animals, 4th week (after cancellation)", "value": "2.3 ± 0.3", "unit": "mL"},
      {"measurement": "daily 15% ethanol consumption", "setting": "[2]; adult animals, 3d week, 1 to 2 mg/kg tongue root", "value": "2.5 ± 0.15", "unit": "mL"},
      {"measurement": "daily 15% ethanol consumption", "setting": "[2]; adult animals, Test, 1st week (before stress and administration)", "value": "1.8 ± 0.08", "unit": "mL"},
      {"measurement": "aggressiveness and exciteability", "setting": "[2]; during the entire experiment, vs control groups", "value": "considerable reduction of aggressiveness and exciteability"},
      {"measurement": "alcohol motivation", "setting": "[2]; rat, in vivo", "value": "diminishes the alcohol motivation of the animals"},
      {"measurement": "daily 15% ethanol consumption", "setting": "[2]; young rats, 2nd week, 1 to 2 mg/kg tongue root", "value": "4.4 ± 0.3", "unit": "mL"},
      {"measurement": "daily 15% ethanol consumption", "setting": "[2]; young rats, 4th week (after cancellation)", "value": "1.6 ± 0.18", "unit": "mL"},
      {"measurement": "daily 15% ethanol consumption", "setting": "[2]; young rats, 3d week, 1 to 2 mg/kg tongue root", "value": "2.0 ± 0.2", "unit": "mL"},
      {"measurement": "daily 15% ethanol consumption", "setting": "[2]; young rats, Test, 1st week (before stress and administration)", "value": "2.7 ± 0.2", "unit": "mL"},
      {"measurement": "alcohol motivation", "setting": "[3]", "value": "considerably reduces it"},
      {"measurement": "15% ethanol daily consumed", "setting": "[3]; 1 week", "value": "3.6 ± 0.3", "unit": "mL"},
      {"measurement": "15% ethanol daily consumed", "setting": "[3]; 2 week", "value": "4.0 ± 0.3", "unit": "mL"},
      {"measurement": "15% ethanol daily consumed", "setting": "[3]; 3 week", "value": "2.3 ± 0.3", "unit": "mL"},
      {"measurement": "15% ethanol daily consumed", "setting": "[3]; 4 week", "value": "2.7 ± 0.2", "unit": "mL"},
      {"measurement": "cases with increased volume of short-lived memory", "setting": "[4]; 2 mg/kg one time", "value": 58.9, "unit": "%"},
      {"measurement": "cases with subjective and objective improvement of general state", "setting": "[4]; 2 mg/kg one time", "value": 87.2, "unit": "%"},
      {"measurement": "students with reduction of latent period of visual-motor reaction and number of differentiation disruptions", "setting": "[4]; 2 mg/kg one time", "value": 56.4, "unit": "%"},
      {"measurement": "tested whose short-lived memory did not worsen and remained on the initial level", "setting": "[4]; 2 mg/kg one time", "value": 25.7, "unit": "%"},
      {"measurement": "increase of volume of short-lived memory", "setting": "[4]; 2 mg/kg one time, average", "value": 25, "unit": "%"},
      {"measurement": "attention", "setting": "[4]; 2 mg/kg one time, in words", "value": "reducing the attention switching time and the number of mistakes made"},
      {"measurement": "Attention switching number of errors", "setting": "[4]; [7]", "value": "3.20 ± 0.39"},
      {"measurement": "Attention switching time", "setting": "[4]; [7]", "value": "95.39 ± 6.11", "unit": "s"},
      {"measurement": "Shortlived memory", "setting": "[4]; [7]", "value": "46.92 ± 2.58", "unit": "nom. units"},
      {"measurement": "Visual-motor reaction differentiation disruption", "setting": "[4]; [7]", "value": "0.46 ± 0.13", "unit": "nominal units"},
      {"measurement": "Visual-motor reaction latent period", "setting": "[4]; [7]", "value": "0.51 ± 0.01", "unit": "min"}
    ]}
  ]
}
